Data from ChEMBL document CHEMBL1136401 (Bioorg Med Chem Lett, 2003).

Tests used:
MT4 [1] = test: Inhibition of the spread of HIV infection (K-60C) in MT-4 human T-lymphoid cells; format: functional; details: read-out: CIC95
MT4 [2] = test: Inhibition of the spread of HIV infection wild type(WT) in MT-4 human T-lymphoid cells; format: functional; details: read-out: CIC95
MT4 [3] = test: Inhibition of the spread of HIV infection (V-18C) in MT-4 human T-lymphoid cells; format: functional; details: read-out: CIC95
[4] = target: T1, Human immunodeficiency virus type 1 protease (Human immunodeficiency virus 1, UniProt Q72874); test: Inhibition of HIV protease of HIV K-60C mutant strain
[5] = target: T1, Human immunodeficiency virus type 1 protease; test: Inhibition of HIV protease of HIV V-18C mutant strain
[6] = target: T1, Human immunodeficiency virus type 1 protease; test: Inhibition of wild type HIV protease

Row | SMILES | IC95 (MT4 [1]) [µM] | IC95 (MT4 [2]) [µM] | IC95 (MT4 [3]) [µM] | IC50 [4] [nM] | IC50 [5] [nM] | IC50 [6] [nM]
1 | Cc1noc(C)c1CNC(=O)[C@H]1N(C(=O)[C@@H](O)C[C@@H](Cc2ccccc2)C(=O)N[C@H]2c3ccccc3OC[C@H]2O)CSC1(C)C | 0.25 | 0.156 | 0.062 | – | – | –
2 | Cc1cccc(C)c1CNC(=O)[C@H]1N(C(=O)[C@@H](O)C[C@@H](Cc2ccccc2)C(=O)N[C@H]2c3ccccc3C[C@H]2O)CSC1(C)C | 0.125 | 0.031 | 0.031 | 0.062 | 0.062 | 0.04
3 | Cc1cccc(C)c1CNC(=O)[C@H]1N(C(=O)[C@@H](O)C[C@@H](Cc2ccccc2)C(=O)N[C@H]2c3ccccc3OC[C@H]2O)CSC1(C)C | 0.5 | 0.047 | 0.062 | – | – | –
4 | Cc1ccnc(C)c1CNC(=O)[C@H]1N(C(=O)[C@@H](O)C[C@@H](Cc2ccccc2)C(=O)N[C@H]2c3ccccc3OC[C@H]2O)CSC1(C)C | 0.25 | 0.187 | 0.125 | – | – | –
5 | Cc1nsc(C)c1CNC(=O)[C@H]1N(C(=O)[C@@H](O)C[C@@H](Cc2ccccc2)C(=O)N[C@H]2c3ccccc3OC[C@H]2O)CSC1(C)C | 0.25 | 0.016 | 0.031 | – | – | –
6 | CC1(C)SCN(C(=O)[C@@H](O)C[C@@H](Cc2ccccc2)C(=O)N[C@H]2c3ccccc3OC[C@H]2O)[C@@H]1C(=O)NCc1c(Cl)cccc1Cl | 0.25 | < 0.008 | 0.016 | – | – | –
7 | Cc1ccccc1CNC(=O)[C@H]1N(C(=O)[C@@H](O)C[C@@H](Cc2ccccc2)C(=O)N[C@H]2c3ccccc3OC[C@H]2O)CSC1(C)C | 0.125 | 0.019 | 0.041 | – | – | –
8 | Cc1cccc(Cl)c1CNC(=O)[C@H]1N(C(=O)[C@@H](O)C[C@@H](Cc2ccccc2)C(=O)N[C@H]2c3ccccc3OC[C@H]2O)CSC1(C)C | 0.046 | 0.031 | 0.023 | – | – | –
9 | CC1(C)SCN(C(=O)[C@@H](O)C[C@@H](Cc2ccccc2)C(=O)N[C@H]2c3ccccc3OC[C@H]2O)[C@@H]1C(=O)NCc1c(F)cccc1F | 0.25 | 0.023 | 0.062 | – | – | –
10 | Cc1cccc(C)c1CNC(=O)[C@H]1N(C(=O)[C@H](O)C[C@@H](Cc2ccccc2)C(=O)N[C@H]2c3ccccc3OC[C@H]2O)CSC1(C)C | 0.07 | 0.015 | 0.015 | – | – | –
11 | Cc1ccccc1CNC(=O)[C@H]1N(C[C@@H](O)C[C@@H](Cc2ccccc2)C(=O)N[C@H]2c3ccccc3OC[C@H]2O)CSC1(C)C | > 1 | 0.25 | 1 | 7.9 | 8.8 | 0.52
12 | CC(C)(C)NC(=O)[C@@H]1CN(Cc2cccnc2)CCN1C[C@@H](O)C[C@@H](Cc1ccccc1)C(=O)N[C@H]1c2ccccc2C[C@H]1O | 1 | 0.045 | 0.89 | – | – | –
